Test system: human keratinocytes (HaCaT)
Experiment: Scratch wound healing (skin regeneration) test, time-lapse microscopy
Type: cell-based
Conditions: after 48 hours, scratched HaCaT
Experimental: First, human keratinocytes (HaCaT) purchased from CLS (Cat No. 300493) were seeded onto a 24-well cell culture plate at a concentration of 2.0×10^5 cells/600 μL, in DMEM (Lonza, #12-604F) containing 10% fetal bovine serum (GIBCO, #16000-044) and antibiotics (Lonza, #17-602E). After culturing in a 5% CO2 incubator at 37° C. for 24 hours and replacing the medium with DMEM containing 1% fetal bovine serum, the cells were cultured further for 16 hours. After the cells were filled on the culture plate, the cells were damaged by applying a linear scratch using a scratcher (SPL, #SPL201925) and then washed twice. Core-shell network solutions comprising 0.005 wt %, 0.25 wt %, 0.5 wt % or 1 wt % of the core-shell network structure based on the total weight of the solution, were prepared in the same manner as in Example 3 (Examples 4-7). […]
The negative control group, the positive control group and the groups treated with the core-shell network structure at different concentrations were placed on a time-lapse microscope (JuLI™ Stage, NanoEnT) stage in a CO2 incubator and each well was imaged for 48 hours with 1-hour intervals. Then, wound healing area (%) was determined from the acquired images using a software analysis tool (Wound Healing tool).

## madecassoside
  wound healing area as compared to the negative control group: 1.37 times
Negative control 30.06%
  wound healing area: 41.25%
